This is an account of results in patent US4517197A, “-N-substituted phenyl-5-methoxymethyl-2-oxazolidinones and pharmaceutical compositions containing same” (Delalande S.A., priority 1980, dated 1985).

A short description of one data set: Toxicity (mice). The following applies: mouse, in vivo, po, read-out: Toxicity (mice) LD 50.
In data set [1] the test system is generalized trembling caused by dl-5-hydroxytryptophane. Nature of the data set: Test A: potentiation in mice of generalized trembling caused by intraperitoneal injection of dl-5-hydroxytryptophane. In kind it is in vivo. The following applies: Mus musculus, po, dl-5-hydroxytryptophane 200 mg/kg intraperitoneal, read-out: Test A ED 50. As to the method:
Test A: potentiation in mice of generalized trembling caused by an intraperitoneal injection (200 mg/kg) of dl-5-hydroxytryptophane, according to the procedure described by Gouret C. and Raynaud G. in J. Pharmacol. (Paris) (1974), 5, 231.

The test system of the next data set is ptosis after reserpine. Nature of the data set: Test B: antagonism of ptosis observed an hour after intravenous injection of reserpine in mice. In kind it is in vivo. To be noted: Mus musculus, po, ptosis an hour after reserpine 2 mg/kg intravenous, read-out: Test B ED 50. As to the method: Test B: antagonism with respect to ptosis observed an hour after an intravenous injection (2 mg/kg) of reserpine in mice according to the procedure described by Gouret C. and Thomas J. in J. Pharmacol. (Paris), (1973), 4, 401.

For the compound `COCC1CN(c2ccc(COc3cccc(Cl)c3)cc2)C(=O)O1` (centres unmarked) [compound 273], in the data set “Toxicity (mice)”, the LD50 is greater than 1000 mg/kg. The ED50 in data set [1] came to 5.9 mg/kg; in the data set with ptosis after reserpine, 3.4 mg/kg.

Consider `COCC1CN(c2ccc(OCCC(C)=O)cc2)C(=O)O1` (centres unmarked) [compound 238], for which, in the data set “Toxicity (mice)”, the LD50 was greater than 1000 mg/kg. For the same compound, the figures for the ED50 (in data set [1]; in the data set with ptosis after reserpine) were 1.9 mg/kg and 1.1 mg/kg, respectively.

Regarding `COCC1CN(c2ccc(OCCc3cccc(Cl)c3)cc2)C(=O)O1` (centres unmarked) [compound 264], the LD50 in the data set “Toxicity (mice)” is greater than 1000 mg/kg. Also, the ED50 came to 2.8 mg/kg in data set [1] and 3 mg/kg in the data set with ptosis after reserpine.

Regarding `Cc1cccc(N2CC(CO)OC2=O)c1` (centres unmarked) [TOLOXATONE, reference compound], the figures for the ED50 (in data set [1]; with ptosis after reserpine) were 60 mg/kg and 50 mg/kg, respectively.

For `COCC1CN(c2ccc(OCCc3cccc(C#N)c3)cc2)C(=O)O1` (centres unmarked) [compound 267], the LD50 in the data set “Toxicity (mice)” is greater than 1000 mg/kg. Further, the ED50 in data set [1] worked out at 1.8 mg/kg; with ptosis after reserpine it was 1.3 mg/kg.

Consider `COCC1CN(c2ccc(-c3cccc(C#N)c3)cc2)C(=O)O1` (centres unmarked) [compound 284], for which, in “Toxicity (mice)”, the LD50 is greater than 1000 mg/kg. Also, the values for the ED50 (in data set [1]; with ptosis after reserpine) were 1.2 mg/kg and 1.3 mg/kg, respectively.

`COCC1CN(c2ccc(CC(=O)c3cccc(C#N)c3)cc2)C(=O)O1` (centres unmarked) [compound 270]: the LD50 in “Toxicity (mice)” is greater than 1000 mg/kg. Moreover, the ED50 (in data set [1]; in the data set with ptosis after reserpine) was 0.2 mg/kg each time.

With `COCC1CN(c2ccc(C#CC3CCCCC3)cc2)C(=O)O1` (centres unmarked) [compound 281], in “Toxicity (mice)”, the LD50 was greater than 1000 mg/kg. Besides, the ED50 in data set [1] was 1.3 mg/kg; in the data set with ptosis after reserpine it was 0.6 mg/kg.

As to `COCC1CN(c2ccc(C#Cc3cccc(C#N)c3)cc2)C(=O)O1` (centres unmarked) [compound 282], in “Toxicity (mice)”, the LD50 was greater than 1000 mg/kg. In addition, the ED50 (in data set [1]; in the data set with ptosis after reserpine) was 0.3 mg/kg throughout.

For the compound `COCC1CN(c2ccc(COc3cccc(C#N)c3)cc2)C(=O)O1` (centres unmarked) [compound 275], the LD50 in the data set “Toxicity (mice)” was greater than 1000 mg/kg. Moreover, the ED50 in data set [1] is 0.6 mg/kg; in the data set with ptosis after reserpine, 0.3 mg/kg.

Regarding `COCC1CN(c2ccc(CCc3cccc(C#N)c3)cc2)C(=O)O1` (centres unmarked) [compound 272], the LD50 in “Toxicity (mice)” is greater than 1000 mg/kg. Moreover, the ED50 in data set [1] amounted to 0.5 mg/kg; with ptosis after reserpine, 0.4 mg/kg.

As for `COCC1CN(c2ccc(CC(=O)c3cccc(Cl)c3)cc2)C(=O)O1` (centres unmarked) [compound 274], the LD50 in the data set “Toxicity (mice)” is greater than 1000 mg/kg. The ED50 in data set [1] is 1.2 mg/kg; with ptosis after reserpine, 0.9 mg/kg.

On to `COCC1CN(c2ccc(CCCCCC#N)cc2)C(=O)O1` (centres unmarked) [compound 289], for which the LD50 in “Toxicity (mice)” was greater than 1000 mg/kg. Further, the values for the ED50 (in data set [1]; in the data set with ptosis after reserpine) were 0.15 mg/kg and 0.2 mg/kg, respectively.

Regarding `COCC1CN(c2ccc(CCc3cccc(Cl)c3)cc2)C(=O)O1` (centres unmarked) [compound 271], in the data set “Toxicity (mice)”, the LD50 was greater than 1000 mg/kg. Also, the ED50 stood at 4.1 mg/kg in data set [1] and 3.8 mg/kg with ptosis after reserpine.

For `COCC1CN(c2ccc(C#Cc3cccc(Cl)c3)cc2)C(=O)O1` (centres unmarked) [compound 277], the LD50 in the data set “Toxicity (mice)” was greater than 1000 mg/kg. In addition, the ED50 came to 1.2 mg/kg in data set [1] and 1.7 mg/kg in the data set on ptosis after reserpine.

As for `COCC1CN(c2ccc(-c3ccc(Cl)cc3)cc2)C(=O)O1` (centres unmarked) [compound 269], the LD50 in the data set “Toxicity (mice)” is greater than 1000 mg/kg. Also, the figures for the ED50 (in data set [1]; with ptosis after reserpine) were 1.7 mg/kg and 1.2 mg/kg, respectively.
